# Data reported in patent US20250214986A1, “P2X3 INHIBITOR COMPOUND, SALT THEREOF, POLYMORPH THEREOF AND USE THEREOF” (HUMANWELL HEATHCARE (GROUP) CO., LTD., priority 2022, published 2025).
# Columns and labels:
# [1] = system: citric acid/histamine-stimulated cough model; assay: Cough efficacy assay of histamine/citric acid in guinea pigs; format: in vivo
# Method: (§1) Before enrollment, the animals were acclimatized for 3-7 days. Once their body weight reached the standard (300-400 g), they were numbered and randomly grouped. 0.25-24 h before the start of the cough assessment, the compound or excipient was administered to the guinea pigs via intranasal instillation. The dose range for the administration of the test substance was 0.17-1.5 mg/kg. During the cough assessment, after the animals were acclimated in a whole-body plethysmography box, they were given histamine nebulization, followed by citric acid nebulization. The number of coughs and the cough latency of the animals were recorded within 22 min from the start of the histamine nebulization until the end of the observation period. For the statistics of experimental data, the one-way ANOVA method was used to analyze and compare the data of the groups. Statistical analysis results with p<0.05 were considered to indicate significant differences. Pairwise comparisons were performed using the t-test method to assess differences.
# taste of SD rats = assay: Taste assay in rats (water vs. aqueous quinine intake); format: in vivo; settings: 30 mg/kg, i.p., 0.3 mM aqueous quinine, 15 min intake half an hour after administration
# Method: After 3 days of overnight water-deprivation training, SD rats were subjected to administration with the compound. Half an hour after administration, each animal was given one bottle of water and one bottle of 0.3 mM aqueous quinine solution. The water bottles were removed after 15 min, and the intake of water and the intake of 0.3 mM aqueous quinine solution by the rats were measured separately. The effect of the compound on the taste of SD rats was assessed based on the difference between the water intake and the aqueous quinine solution intake (FIG. 41).
# [2] = Pharmacokinetic assay in mice; format: in vivo, male ICR mice
# Method: Pharmacokinetic assay in mice was performed, wherein the mice used were male ICR mice weighing 20-25 g and fasted overnight. 3 mice were taken and given the compound by oral intragastric administration at 10 mg/kg, and blood was collected before administration and at 15 min, 30 min, 1 h, 2 h, 4 h, 8 h, and 24 h after administration. The blood samples were centrifuged at 6800 g at 2-8° C. for 6 min, and plasma was collected and stored at −80° C. […] The mixture was vortexed for 1 min and then centrifuged at 13000 rpm at 4° C. for 10 min. The supernatant was taken, and 3 times its amount of water was added for mixing. A proper amount of the resulting mixture was taken for LC-MS/MS analysis. The major pharmacokinetic parameters were analyzed using a non-compartmental model in the WinNonlin 7.0 software.
# [3] = system: citric acid/ATP-stimulated cough model; assay: Cough efficacy assay of ATP/citric acid in guinea pigs; format: in vivo
# Method: as §1, with “ATP” for “histamine”, “and after a few minutes, they were given” for “followed by”, “15” for “22”, “citric acid nebulization. The” for “histamine nebulization until the end of the observation period. For the statistics of experimental data, the”
# [4] = Hygroscopicity by dynamic vapor sorption (DVS); format: physicochemical
# Method: Dynamic vapor sorption (DVS) curves were acquired on a DVS IntrInsic from Surface Measurement Systems (SMS). The relative humidity at 25° C. was corrected with the deliquescence points of LiCl, Mg(NO3)2, and KCl.
# Starting at 0% RH, the test acquired the percentage changes in mass of the samples when the humidity changed (0% RH to 95% RH to 0% RH) at a constant temperature of 25° C.
# [5] = Dynamic solubility experiment at 37° C.; format: physicochemical
# Method: In the test, the purity, dynamic solubility and stability were tested using an Agilent 1260 high-performance liquid chromatograph, the molar ratio of salt-forming ions was tested using ion chromatography, and the analytical conditions are shown in Tables A-4 and A-5 below.
# Solids at a feeding concentration of 10 mg/mL (calculated based on free base) were rotationally mixed with corresponding vehicles at 37° C. […] After sampling at each time point, the samples were centrifuged (at 10000 rpm) and filtered (through a 0.45 μm PTFE filter head). The HPLC concentrations and pH values of the filtrates were determined.
# 100.2 mg of NaCl and 50.3 mg of Triton X-100 were weighed into a 50 mL volumetric flask and then completely dissolved by addition of purified water. 816 μL of 1 M hydrochloric acid was added, and the pH was adjusted to 1.8 with 1 M hydrochloric acid or 1 M NaOH solution. The mixed solution was brought to the volume by addition of purified water.
# 170.5 mg of anhydrous NaH2PO4, 22.2 mg of NaOH, and 310.9 mg of NaCl were weighed into a 50 mL volumetric flask and then completely dissolved by addition of purified water. The pH was adjusted to 6.5 with 1 M hydrochloric acid or 1 M NaOH solution. The mixed solution was brought to the volume by addition of purified water. Subsequently, 55.1 mg of SIF powder was weighed into a 25 mL volumetric flask and completely dissolved with the above solution, and the mixed solution was brought to the volume.
# 0.21 mL of glacial acetic acid, 101.6 mg of NaOH, and 295.4 mg of NaCl were added into a 25 mL volumetric flask and then completely dissolved by addition of about 20 mL of purified water. The pH was adjusted to 5.0 with 1 M hydrochloric acid or 1 M NaOH solution. The mixed solution was brought to the volume by addition of purified water, and then 280.8 mg of SIF powder was weighed into the flask and completely dissolved.
# [6] = Competitive suspension tests of free base crystalline forms A/B; format: physicochemical; settings: room temperature and 50° C.
# Method: In order to confirm the thermodynamic transformation relationship between the anhydrous free base crystalline forms A and B under different temperature conditions, competitive suspension tests in n-heptane and toluene at room temperature and 50° C. were set up.
# [7] = Solid state stability (XRPD and HPLC); format: physicochemical
# Method: In the test, the purity, dynamic solubility and stability were tested using an Agilent 1260 high-performance liquid chromatograph, the molar ratio of salt-forming ions was tested using ion chromatography, and the analytical conditions are shown in Tables A-4 and A-5 below. [table]
# [8] = citric acid/histamine-stimulated cough model
# [9] = histamine/citric acid nebulization, intranasal instillation
# [10] = male, ICR, mouse, plasma, mice, oral intragastric administration, 10 mg/kg
# [11] = ATP/citric acid nebulization, intranasal instillation
# [12] = citric acid/ATP-stimulated cough model
# [13] = 25° C./60% RH/uncovered, 1 month
# [14] = 25° C./60% RH/uncovered, 1 week
# [15] = 40° C./75% RH/uncovered, 1 month
# [16] = 40° C./75% RH/uncovered, 1 week
compound,measurement,setting,value
"Cc1cnc(-c2cc(O[C@@H](C)[C@@H](C)O)cc(C(=O)N[C@H](C)c3cnc(C(F)(F)F)nc3)c2F)s1 [Compound of formula I, 2-fluoro-5-(((2S,3R)-3-hydroxybutan-2-yl)oxy)-3-(5-methylthiazol-2-yl)-N—((R)-1-(2-(trifluoromethyl)pyrimidin-5-yl)ethyl)benzamide]",cough latency,[1]; [8],prolonged the cough latency
same,number of coughs compared to control compound 1,[1]; [8],significantly reduced the number of coughs
same,Cough inhibition rate vs. vehicle (%),[1]; [9],66.5%
same,Mean number of coughs within 15 min,[1]; [9],8.9
same,Water/aqueous quinine solution intake ratio,taste of SD rats,29.4
same,AUC(0-t),[2]; [10],15000 ng·h/mL
same,Cmax,[2]; [10],3380 ng/mL
same,Tmax,[2]; [10],0.5 h
same,half-life,"[2]; male, ICR, mouse, plasma, mice, oral intragastric administration, 10 mg/kg, read-out: T½ (converted)",2.89 h
same,pharmacokinetic properties compared to the control compounds 1 and 2,[2]; mouse model,certain improvements in their pharmacokinetic properties
same,Cough inhibition rate vs. vehicle (%),[3]; [11],68.2%
same,Mean number of coughs within 15 min,[3]; [11],6.3
same,cough latency,[3]; [12],prolonged the cough latency
same,number of coughs compared to control compound 1,[3]; [12],significantly reduced the number of coughs
"Cc1cnc(-c2cc(O[C@@H](C)[C@@H](C)O)cc(C(=O)N[C@H](C)c3cnc(C(F)(F)F)nc3)c2F)s1 [Free base crystalline form A, 2-fluoro-5-(((2S,3R)-3-hydroxybutan-2-yl)oxy)-3-(5-methylthiazol-2-yl)-N—((R)-1-(2-(trifluoromethyl)pyrimidin-5-yl)ethyl)benzamide]",crystalline form after DVS test,"[4]; 0% RH to 95% RH to 0% RH, 25° C.",remained unchanged
same,vapor sorption,[4]; 25° C./80% RH,about 0.91%
same,hygroscopicity,"[4]; DVS, 25° C./80% RH",slight hygroscopicity
same,solubility at 4 h,"[5]; FaSSIF, 37 °C, pH 6.5, fassif, thermodynamic from solid, FaSSIF, 4 h, read-out: S: solubility",8 µg/mL
same,Crystalline form change,"[5]; FaSSIF, 1 h",No
same,S: solubility,"[5]; FaSSIF, 1 h",10 µg/mL
same,pH of filtrate,"[5]; FaSSIF, 1 h",6.5
same,Crystalline form change,"[5]; FaSSIF, 4 h",No
same,pH of filtrate,"[5]; FaSSIF, 4 h",6.5
same,Crystalline form change,"[5]; FaSSIF, 24 h",No
same,S: solubility,"[5]; FaSSIF, 24 h",9 µg/mL
same,pH of filtrate,"[5]; FaSSIF, 24 h",6.5
same,solubility at 24 h,"[5]; FeSSIF, 37 °C, pH 5, fessif, thermodynamic from solid, FeSSIF, 24 h, read-out: S: solubility",25 µg/mL
same,Crystalline form change,"[5]; FeSSIF, 1 h",No
same,S: solubility,"[5]; FeSSIF, 1 h",23 µg/mL
same,pH of filtrate,"[5]; FeSSIF, 1 h",5.0
same,Crystalline form change,"[5]; FeSSIF, 4 h",No
same,S: solubility,"[5]; FeSSIF, 4 h",23 µg/mL
same,pH of filtrate,"[5]; FeSSIF, 4 h",5.0
same,Crystalline form change,"[5]; FeSSIF, 24 h",No
same,pH of filtrate,"[5]; FeSSIF, 24 h",5.0
same,Crystalline form change,"[5]; H2O, 1 h",No
same,S: solubility,"[5]; H2O, 1 h",3 µg/mL
same,pH of filtrate,"[5]; H2O, 1 h",8.8
same,Crystalline form change,"[5]; H2O, 4 h",No
same,S: solubility,"[5]; H2O, 4 h",3 µg/mL
same,pH of filtrate,"[5]; H2O, 4 h",8.9
same,Crystalline form change,"[5]; H2O, 24 h",No
same,S: solubility,"[5]; H2O, 24 h",3 µg/mL
same,pH of filtrate,"[5]; H2O, 24 h",9.0
same,crystalline form changes in the dynamic solubility tests,"[5]; H2O, SGF, FaSSIF, FeSSIF",did not undergo any crystalline form changes
same,Crystalline form change,"[5]; SGF, 1 h",No
same,S: solubility,"[5]; SGF, 1 h",13 µg/mL
same,pH of filtrate,"[5]; SGF, 1 h",1.8
same,Crystalline form change,"[5]; SGF, 4 h",No
same,S: solubility,"[5]; SGF, 4 h",13 µg/mL
same,pH of filtrate,"[5]; SGF, 4 h",1.8
same,Crystalline form change,"[5]; SGF, 24 h",No
same,S: solubility,"[5]; SGF, 24 h",12 µg/mL
same,pH of filtrate,"[5]; SGF, 24 h",1.8
same,thermodynamic stability of the crystalline form,[6],thermodynamically stable crystalline form
same,HPLC Purity (area %),[7]; [13],99.33 area %
same,HPLC purity Relative to starting (%),[7]; [13],99.96%
same,HPLC Purity (area %),[7]; [14],99.38 area %
same,HPLC purity Relative to starting (%),[7]; [14],100.01%
same,HPLC Purity (area %),[7]; [15],99.43 area %
same,HPLC purity Relative to starting (%),[7]; [15],100.06%
same,HPLC Purity (area %),[7]; [16],99.51 area %
same,HPLC purity Relative to starting (%),[7]; [16],100.14%
same,change of HPLC purity after placement under the corresponding conditions,"[7]; 60° C. sealed 1 day, 25° C./60% RH and 40° C./75% RH uncovered 1 week/1 month",no significant change
same,HPLC Purity (area %),"[7]; 60° C./sealed, 1 day",99.44 area %
same,HPLC purity Relative to starting (%),"[7]; 60° C./sealed, 1 day",100.07%
same,HPLC Purity (area %),[7]; Starting,99.37 area %
